The record followed here is patent US8912219B2, “Aryl sulfamide and sulfamate derivatives as RORc modulators” (Genentech, Inc., priority 2013, dated 2014).

The target in the experiment is RORc ligand binding domain (Homo sapiens (Human), UniProt P51449).
Chain of RORc ligand binding domain (P51449 269-508): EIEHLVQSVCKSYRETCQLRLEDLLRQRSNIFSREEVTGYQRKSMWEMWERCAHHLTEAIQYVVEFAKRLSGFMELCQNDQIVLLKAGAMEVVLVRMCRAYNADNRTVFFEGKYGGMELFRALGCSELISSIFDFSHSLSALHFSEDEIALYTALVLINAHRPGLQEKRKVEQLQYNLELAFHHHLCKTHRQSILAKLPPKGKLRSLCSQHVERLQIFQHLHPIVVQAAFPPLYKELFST
One may read the IC50 as the concentration needed to halve the response being measured. The low end stands for greater potency, the high end for weaker potency. For the compound `CC(=O)N1CCN(c2ccc(CN(C3CCC3)S(=O)(=O)N(C)c3ccccc3)c(F)c2)CC1` [Compound 2, 1-(4-(4-acetylpiperazin-1-yl)-2-fluorobenzyl)-1-cyclobutyl-3-methyl-3-phenyl-sulfonamide], the half-inhibitory concentration (IC50) is 28 nM. The compound `CC(=O)N1CCN(c2ccc(CN(C3CCC3)S(=O)(=O)Oc3ccccc3)c(F)c2)CC1` [Compound 10, phenyl 4-(4-acetylpiperazin-1-yl)-2-fluorobenzyl(cyclobutyl)sulfamate] had a 50% inhibitory concentration (IC50) of 7 nM. Against the preceding compound, the IC50 is about 4-fold lower. In the case of `CS(=O)(=O)N1CCC(Oc2ccc(N3CCN(Cc4ccc(F)cc4)S3(=O)=O)cc2)CC1` [Compound 3, 2-(4-fluorobenzyl)-5-(4-((1-(methylsulfonyl)piperidin-4-yl)oxy)phenyl)-1,2,5-thiadiazolidine 1,1-dioxide] it was 6420 nM; in that of `CC(C)CN(Cc1ccc(F)cc1)S(=O)(=O)Nc1ccc(OC2CCN(S(C)(=O)=O)CC2)cc1` [Compound 4, 1-(4-fluorobenzyl)-1-isobutyl-3-(4-((1-(methylsulfonyl)piperidin-4-yl)oxy)phenyl)-sulfamide], 230 nM.
